# System: A2780 cells
# Test: In vitro cell proliferation assay (WST-1 assay)
# Type: cell-based
# Settings: Homo sapiens, total incubation time 72 h, WST-1 readout
# Method: A2780 cells were seeded in 96-well plates at 3×10^3 cells/well in 100 μL of culture medium, 8 wells were left empty for media only controls.
# After 24 h the compound titrations were performed, in a separate dilution plate, by serially diluting the compounds of general formula (I) in culture medium. A 100 μL of each dilution was added to the plated cells, this was done in triplicate, and controls (e.g. DMSO and blanks) were included. The plates were incubated for 24 h at 37° C. in a CO2 incubator. The compound titrations were repeated in a separate dilution plate after 24 h. The media plus compound from the assay plates were then aspirated. A 100 μL of media was then added to all wells, followed by 100 μL of each compound dilution. The plates were incubated for a further 48 h at 37° C. in a CO2 incubator (total incubation time 72 h). The number of viable cells was then assessed using Cell Proliferation Reagent WST-1. 10 μL of WST-1 reagent added to each well and incubated for one to four hours at 37° C. in CO2 incubator. The absorbance was measured (450 nm/690 nm).
# The activity of compounds of general formula (I) in reducing the number of viable cells was calculated as:
# % activity=[(S^c−B)/(S^o−B)]×100
# S^c denotes signal measured in the presence of test compound, S^o denotes signal detected in the absence of compound, and B denotes background signal, measured in blank wells containing medium only. Analyse data using GraphPad Prism.
row,Structure (SMILES),IC50 [nM]
1,"O=c1c(NCCCCCCCN(CCF)S(=O)(=O)C2CCCCC2)c(Nc2ccncc2)c1=O [Compound 1099, N-(7-(3,4-dioxo-2-(pyridin-4-ylamino)cyclobut-1-enylamino)heptyl)-N-(2-fluoroethyl)cyclohexanesulfonamide]",0.43
2,N#C/N=C(\NCCCCCCCCN(CCF)S(=O)(=O)C1CCCCC1)Nc1ccncc1 [Compound 1103],0.005
3,"N#C/N=C(\NCCCCCCCCNOCC1CCCCC1)Nc1ccncc1 [Compound 1107, 2-cyano-1-(8-(cyclohexylmethoxyamino)octyl)-3-(pyridin-4-yl)guanidine]",0.57
4,"N#C/N=C(\NCCCCCCNOCC1CCCCC1)Nc1ccncc1 [Compound 1110, 2-cyano-1-(8-(cyclohexylmethoxyamino)hexyl)-3-(pyridin-4-yl)guanidine]",0.015
5,"CCNC(=O)N(CCCCCCN/C(=N\C#N)Nc1ccncc1)OCC1CCCCC1 [Compound 1114, 1-(6-(2-cyano-3-(pyridin-4-yl)guanidino)hexyl)-1-(cyclohexylmethoxy)-3-ethylurea]",0.057
6,"CC(C)NC(=O)N(CCCCCCN/C(=N\C#N)Nc1ccncc1)OCC1CCCCC1 [Compound 1115, 1-(6-(2-cyano-3-(pyridin-4-yl)guanidino)hexyl)-1-(cyclohexylmethoxy)-3-isopropylurea]",0.033
7,"CNC(=S)N(CCCCCCN/C(=N\C#N)Nc1ccncc1)OCC1CCCCC1 [Compound 1116, 1-(6-(2-cyano-3-(pyridin-4-yl)guanidino)hexyl)-1-(cyclohexylmethoxy)-3-methylthiourea]",0.056
8,"CCNC(=O)N(CCCCCCCCN/C(=N\C#N)Nc1ccncc1)OCC1CCCCC1 [Compound 1125, 1-(8-(2-cyano-3-(pyridin-4-yl)guanidino)octyl)-N-(cyclohexylmethoxy)-3-ethylurea]",0.057
9,"CCS(=O)(=O)N(CCCCCCN/C(=N\C#N)Nc1ccncc1)OCC1CCCCC1 [Compound 1138, N-(6-(2-cyano-3-(pyridin-4-yl)guanidino)hexyl)-N-(cyclohexylmethoxy)ethane-2-sulfonamide]",0.059

# Second part, the compound after the results:
row,IC50 [nM],Structure (SMILES)
1,0.086,"CS(=O)(=O)N(CCCCCCN/C(=N\C#N)Nc1ccncc1)OCC1CCCCC1 [Compound 1112, N-(6-(2-cyano-3-(pyridin-4-yl)guanidino)hexyl)-N-(cyclohexylmethoxy)methanesulfonamide]"
2,0.046,"CS(=O)(=O)N(CCCCCCCN/C(=N\C#N)Nc1ccncc1)OCC1CCCCC1 [Compound 1118, N-(7-(2-cyano-3-(pyridin-4-yl)guanidino)heptyl)-N-(cyclohexylmethoxy)methanesulfonamide]"
3,0.15,"CS(=O)(=O)N(CCCCCCCCN/C(=N\C#N)Nc1ccncc1)OCC1CCCCC1 [Compound 1124, N-(8-(2-cyano-3-(pyridin-4-yl)guanidino)octyl)-N-(cyclohexylmethoxy)methanesulfonamide]"
4,0.081,CS(=O)(=O)N(CCCCCN/C(=N\C#N)Nc1ccncc1)OCC1CCCCC1 [Compound 1143]
5,0.037,CCS(=O)(=O)N(CCCCCN/C(=N\C#N)Nc1ccncc1)OCC1CCCCC1 [Compound 1144]
